Results taken from patent publication US20240366785A1 (priority 2021, published 2024).

Tested on: human patients having XLMTM
Assay: Ursodiol treatment of hyperbilirubinemia after resamirigene bilparvovec
Format: in vivo
Procedure: A subject (115-9001) experienced an SAE of Grade 3 cholestasis which required hospitalization. The subject's medical history included cholestasis and elevated total bilirubin. Approximately 5 weeks after dosing, the subject had elevated direct bilirubin levels (Grade 2) which was treated with ursodiol and resolved 6 weeks later. Approximately 11 weeks after dosing, the subject experienced cholestasis and decision was made to hospitalize the subject 9 days after cholestasis was reported. The cholestasis resolved after approximately 12 weeks. Cholestasis was considered by the Investigator to be possibly related to resamirigene bilparvovec infusion. The subject's baseline history of cholestasis supports underlying disease as causal factor.
Cholestasis and hyperbilirubinemia are considered identified risks associated with resamirigene bilparvovec. Therefore, for subjects receiving resamirigene bilparvovec, ursodiol is recommended as prophylaxis for possible cholestatic syndromes. Ursodiol (ursodeoxycholic acid) is an enterally administered hydrophilic bile acid that can decrease the hydrophobic bile acid content within bile. […]

With `C[C@H](CCC(=O)O)[C@H]1CC[C@H]2[C@@H]3[C@@H](O)C[C@@H]4C[C@H](O)CC[C@]4(C)[C@H]3CC[C@]12C` [ursodiol, Ursodeoxycholic acid] the “Transient hyperbilirubinemia following resamirigene bilparvovec: response to ursodiol” value (in some cases) was “responsive” and the “Elevated direct bilirubin (Grade 2) treated with ursodiol: time to resolution” value (subject 115-9001, after resamirigene bilparvovec 3.0×10^14 vg/kg) was 6 weeks.
